Measurements: patent publication US9174980B2, “Heterocyclic compounds as inhibitors of leukotriene production” (Boehringer Ingelheim International GmbH, priority 2012, dated 2015)

How the values were obtained:
[1] = target: T1, recombinant human FLAP protein (Homo sapiens, UniProt P20292); test: FLAP binding assay (Scintillation Proximity Assay, displacement of [125I]L-691,831); conditions: read-out: Human FLAP SPA Binding (IC50 nM)
T1 construct: made in house; host or cells: Sf9 insect cells (membrane fraction, 100,000 x g pellet)
T1 sequence (P20292 1-161): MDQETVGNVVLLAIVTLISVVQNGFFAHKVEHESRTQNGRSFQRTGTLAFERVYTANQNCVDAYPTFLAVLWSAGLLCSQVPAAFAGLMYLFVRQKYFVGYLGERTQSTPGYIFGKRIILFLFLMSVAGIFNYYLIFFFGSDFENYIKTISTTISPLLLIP
Method: Compounds are assessed for the ability to bind to FLAP in a binding assay that measures compound-specific displacement of an iodinated (^125I) FLAP inhibitor via a Scintillation Proximity Assay format (adapted from S. Charleson et al., Mol. Pharmacol., 1992, 41, 873-879).
Cell pellets produced from sf9 insect cells expressing recombinant human FLAP protein are resuspended in buffer A [15 mM Tris-HCl (pH 7.5), 2 mM MgCl2, 0.3 mM EDTA, 1 mM PMSF]. The cells are lysed with a Dounce homogenizer and the material is centrifuged at 10,000×g for 10 minutes. The supernatant is then collected and centrifuged at 100,000×g for 60 minutes. To prepare membrane protein for an assay, an aliquot of the 100,000×g pellet is resuspended in 1 ml of buffer A, Dounce homogenized, and finally subjected to polytron mixing (30 seconds). Membrane protein (25 μl, 5 μg) is mixed with WGA SPA beads (Amersham) and stirred for 1 h. To an assay plate (Perkin Elmer FlexiPlate) is added 25 μl of test compound prepared in Binding buffer [100 mM Tris (pH 7.5), 140 mM NaCl, 5% glycerol, 2 mM EDTA, 0.5 mM TCEP, 0.05% Tween 20], 25 μl of [^125I]L-691,831 (an iodinated analog of MK-591, Charleson et al. Mol. Pharmacol., 41, 873-879, 1992) and finally 50 μl of the bead/protein mixture. (final concentrations: beads, 200 μg/well; protein, 5 μg/well; [^125I] probe, 0.08 nM/well (17 nCi/well). The plates are shaken for 2 h before reading on a Microbeta plate reader. Non-specific binding is determined by the addition of 10 μM cold L-691,831 compound.

[2] = tested on: synthesis of LTB4 in human whole blood; test: Human whole blood assay (calcimycin-stimulated LTB4 synthesis); assay type: cell-based; conditions: Homo sapiens; read-out: Human Whole Blood LTB4 Assay for FLAP (IC50 nM)
Method: Compounds are additionally tested in a human whole blood assay to determine their ability to inhibit the synthesis of LTB4 in a cellular system. Compounds are combined with heparinized human whole blood and incubated for 15 minutes at 37° C. Calcimycin (20 μM final, prepared in phosphate-buffered saline, pH 7.4) is then added and the mixture is incubated for another 30 minutes at 37° C. The samples are centrifuged for 5 min at low speed (1500×g) and the plasma layer is removed. Plasma LTB4 concentrations are then measured using an antibody-based homogenous time-resolved fluorescence method (CisBio, Bedford, Mass.).

Row | IC50 [1] [nM] | IC50 [2] [nM] | SMILES
1 | 1.3 | 1300 | Nc1ncc(-c2ccc(C3(c4c[nH]c5cc(C(=O)NC6CCS(=O)(=O)C6)ccc45)CCC3)cc2)cn1 (stereo not shown) [Example 1, 3-{1-[4-(2-aminopyrimidin-5-yl)phenyl]cyclobutyl}-N-(1,1-dioxidotetrahydrothiophen-3-yl)-1H-indole-6-carboxamide]
2 | 1.9 | 490 | CN(CCS(C)(=O)=O)C(=O)c1cccc2c(C3(c4ccc(-c5cnc(N)nc5)cc4)CCC3)c[nH]c12 [Example 2, 3-{1-[4-(2-aminopyrimidin-5-yl)phenyl]cyclobutyl}-N-methyl-N-[2-(methylsulfonyl)ethyl]-1H-indole-7-carboxamide]
3 | 1.4 | 490 | CS(=O)(=O)CCNC(=O)c1cccc2c(C3(c4ccc(-c5cnc(N)nc5)cc4)CCC3)c[nH]c12 [Example 3, 3-{1-[4-(2-aminopyrimidin-5-yl)phenyl]cyclobutyl}-N-[2-(methylsulfonyl)ethyl]-1H-indole-7-carboxamide]
4 | 1.2 | 2800 | Nc1ncc(-c2ccc(C3(c4c[nH]c5c(C(=O)NCCS(N)(=O)=O)cccc45)CCC3)cc2)cn1 [Example 4, 3-{1-[4-(2-aminopyrimidin-5-yl)phenyl]cyclobutyl}-N-(2-sulfamoylethyl)-1H-indole-7-carboxamide]
5 | 0.72 | 220 | Nc1ncc(-c2ccc(C3(c4c[nH]c5c(C(=O)NC6CCS(=O)(=O)C6)cccc45)CCC3)cc2)cn1 (stereo not shown) [Example 5, 3-{1-[4-(2-aminopyrimidin-5-yl)phenyl]cyclobutyl}-N-(1,1-dioxidotetrahydrothiophen-3-yl)-1H-indole-7-carboxamide]
6 | 1.5 | 29 | CNC(=O)c1cccc2c(C3(c4ccc(-c5cnc(N)nc5)cc4)CCC3)c[nH]c12 [Example 6, 3-[1-[4-(2-aminopyrimidin-5-yl)phenyl]cyclobutyl]-N-methyl-1H-indole-7-carboxamide]
7 | 2.1 | 210 | CN(C)C(=O)c1cccc2c(C3(c4ccc(-c5cnc(N)nc5)cc4)CCC3)c[nH]c12 [Example 7, 3-{1-[4-(2-aminopyrimidin-5-yl)phenyl]cyclobutyl}-N,N-dimethyl-1H-indole-7-carboxamide]
8 | 2.8 | 410 | Cc1ccc(-c2coc(C3(c4ccc(-c5cnc(N)nc5)cc4)CCC3)n2)cn1 [Example 8, 5-(4-{1-[4-(6-methylpyridin-3-yl)-1,3-oxazol-2-yl]cyclobutyl}phenyl)pyrimidin-2-amine]
9 | 2.2 | 27 | Cc1nc(CNC(=O)c2cccc3c(C4(c5ccc(-c6cnc(N)nc6)cc5)CCC4)c[nH]c23)no1 [Example 9, 3-{1-[4-(2-aminopyrimidin-5-yl)phenyl]cyclobutyl}-N-[(5-methyl-1,2,4-oxadiazol-3-yl)methyl]-1H-indole-7-carboxamide]
10 | 2.4 | 340 | CCc1nc(CN(C)C(=O)c2cccc3c(C4(c5ccc(-c6cnc(N)nc6)cc5)CCC4)c[nH]c23)no1 [Example 10, 3-{1-[4-(2-aminopyrimidin-5-yl)phenyl]cyclobutyl}-N-[(5-ethyl-1,2,4-oxadiazol-3-yl)methyl]-N-methyl-1H-indole-7-carboxamide]
11 | 3.3 | 230 | Cc1nnc(CN(C)C(=O)c2cccc3c(C4(c5ccc(-c6cnc(N)nc6)cc5)CCC4)c[nH]c23)o1 [Example 11, 3-{1-[4-(2-aminopyrimidin-5-yl)phenyl]cyclobutyl}-N-methyl-N-[(5-methyl-1,3,4-oxadiazol-2-yl)methyl]-1H-indole-7-carboxamide]
12 | 2.7 | 680 | CCc1noc(CN(CC)C(=O)c2cccc3c(C4(c5ccc(-c6cnc(N)nc6)cc5)CCC4)c[nH]c23)n1 [Example 12, 3-{1-[4-(2-aminopyrimidin-5-yl)phenyl]cyclobutyl}-N-ethyl-N-[(3-ethyl-1,2,4-oxadiazol-5-yl)methyl]-1H-indole-7-carboxamide]
13 | 1.4 | 320 | Cc1cc(CN(C)C(=O)c2cccc3c(C4(c5ccc(-c6cnc(N)nc6)cc5)CCC4)c[nH]c23)[nH]n1 [Example 13, 3-{1-[4-(2-aminopyrimidin-5-yl)phenyl]cyclobutyl}-N-methyl-N-[(3-methyl-1H-pyrazol-5-yl)methyl]-1H-indole-7-carboxamide]
14 | 30 | > 5000 | Cc1ccc(-c2cnc(C3(c4ccc(-c5cnc(N)nc5)cc4)CCC3)[nH]2)cn1 [Example 14, 5-(4-{1-[5-(6-methylpyridin-3-yl)-1H-imidazol-2-yl]cyclobutyl}phenyl)pyrimidin-2-amine]
15 | 1.8 | 220 | Cc1ccc(-c2cnc(C3(c4ccc(-c5cnc(N)nc5)cc4)CCC3)s2)cn1 [Example 15, 5-(4-{1-[5-(6-methylpyridin-3-yl)-1,3-thiazol-2-yl]cyclobutyl}phenyl)pyrimidin-2-amine]
16 | 7.1 | 1400 | Cc1ccc(-c2cnc(C3(c4ccc(-c5cnc(N)nc5)cc4)CCC3)o2)cn1 [Example 16, 5-(4-{1-[5-(6-methylpyridin-3-yl)-1,3-oxazol-2-yl]cyclobutyl}phenyl)pyrimidin-2-amine]
17 | 3.4 | 250 | Cc1cc(CN(C)C(=O)c2cccc3c(C4(c5ccc(-c6cnc(N)nc6)cc5)CCC4)c[nH]c23)no1 [Example 17, 3-{1-[4-(2-aminopyrimidin-5-yl)phenyl]cyclobutyl}-N-methyl-N-[(5-methyl-1,2-oxazol-3-yl)methyl]-1H-indole-7-carboxamide]
18 | 4 | 680 | Cc1ccc(-c2cc(C3(c4ccc(-c5cnc(N)nc5)cc4)CCC3)[nH]n2)cn1 [Example 18, 5-(4-{1-[5-(6-methylpyridin-3-yl)-1H-pyrazol-3-yl]cyclobutyl}phenyl)pyrimidin-2-amine]
19 | 510 | > 5000 | Cc1ccc(-c2cc(C3(c4ccc(-c5cnc(N)nc5)cc4)CCC3)n(C)n2)cn1 [Example 19, 5-(4-{1-[1-methyl-3-(6-methylpyridin-3-yl)-1H-pyrazol-5-yl]cyclobutyl}phenyl)pyrimidin-2-amine]
20 | 5.1 | 430 | Cc1ccc(-c2cc(C3(c4ccc(-c5cnc(N)nc5)cc4)CCC3)nn2C)cn1 [Example 20, 5-(4-{1-[1-methyl-5-(6-methylpyridin-3-yl)-1H-pyrazol-3-yl]cyclobutyl}phenyl)pyrimidin-2-amine]
21 | 38 | 1600 | CC(C)C(C)(c1ccc(-c2cnc(N)nc2)cc1)c1nc(N2CCNCC2)no1 (stereo not shown) [Example 21, 5-[4-[1,2-dimethyl-1-(3-piperazin-1-yl-1,2,4-oxadiazol-5-yl)propyl]phenyl]pyrimidin-2-amine; formic acid]
22 | 44 | 710 | CC(C)C(C)(c1ccc(-c2cnc(N)nc2)nc1)c1nc(-c2cnn(C)c2)no1 (stereo not shown) [Example 22, 5-(5-{3-methyl-2-[3-(1-methyl-1H-pyrazol-4-yl)-1,2,4-oxadiazol-5-yl]butan-2-yl}pyridin-2-yl)pyrimidin-2-amine]
23 | 890 | > 5000 | COc1cncc(-c2ccc(C(c3ncc(Br)s3)C(C)C)cc2)c1 (stereo not shown) [Example 24, 5-bromo-2-[1-[4-(5-methoxy-3-pyridyl)phenyl]-2-methyl-propyl]thiazole]
